Values after ≈ are worked out from the molar mass of the structure shown.

The subject of the experiment is Staphylococcus aureus. Nature of the experiment: Antibacterial activity against Staphylococcus aureus ATCC 6538. It is filed as functional.
For the compound `COC(=O)C1CC=CCOc2ccc(cc2)C[C@H](NC(C)=O)C(=O)N[C@@H](CCCNC(=N)N)C(=O)N1` (stereo partly specified), the MIC amounted to 62.5 µg/mL (≈ 124 µM). Next, `COC(=O)[C@@H]1C/C=C/Cc2cc3ccccc3c(c2OC)-c2c(OC)c(cc3ccccc23)CC(NC(C)=O)C(=O)N[C@H](CCCCN)C(=O)N1` (stereo partly specified): 7 µg/mL (≈ 10.1 µM); `CN[C@H](CC(C)C)C(=O)N[C@H]1C(=O)N[C@@H](CC(N)=O)C(=O)N[C@H]2C(=O)N[C@H]3C(=O)N[C@H](C(=O)N[C@H](C(=O)O)c4cc(O)cc(O)c4-c4cc3ccc4O)[C@H](O)c3ccc(c(Cl)c3)Oc3cc2cc(c3O[C@@H]2O[C@H](CO)[C@@H](O)[C@H](O)[C@H]2O[C@H]2C[C@](C)(N)[C@H](O)[C@H](C)O2)Oc2ccc(cc2Cl)[C@H]1O` [VANCOMYCIN]: 1.95 µg/mL (≈ 1.35 µM); `COC(=O)[C@@H]1C/C=C\COc2ccc3ccccc3c2-c2c(ccc3ccccc23)OCC(=O)N[C@H](CCCCN)C(=O)N1.Cl`: 15 µg/mL. As for `COC(=O)[C@H]1C/C=C/Cn2cc(c3ccccc32)CC(=O)N[C@H](CCCCN)C(=O)N1`, the MIC was 125 µg/mL (≈ 293 µM). In the case of `COC(=O)C1C/C=C\COc2ccc(cc2)CC(NC(C)=O)C(=O)NC(CCCCNC(=N)N)C(=O)N1` (stereo unspecified), the MIC worked out at 62.5 µg/mL (≈ 121 µM). Take `C=CCOc1ccc2ccccc2c1-c1c(OCC(=O)N[C@H](CCCCN)C(=O)OC)ccc2ccccc12.Cl`: inhibition of growth (MIC) required 32 µg/mL.

The compound `COC(=O)C1CC=CCOc2ccc(cc2)C[C@H](NC(C)=O)C(=O)N[C@@H](CCCCN)C(=O)N1` (stereo partly specified) had an MIC of 62.5 µg/mL (≈ 132 µM). In turn, `C=CCOc1ccc2ccccc2c1-c1c(OCC(=O)N[C@H](CCCCN)C(=O)N[C@H](CC=C)C(=O)OC)ccc2ccccc12.Cl` yielded an MIC of 4 µg/mL. Compound `COC(=O)[C@H]1C/C=C/Cn2cc(c3ccccc32)CCC(=O)N[C@H](CCCCN)C(=O)N1` had an MIC of 125 µg/mL (≈ 284 µM). The compound `C=CCOc1ccc2ccccc2c1-c1c(OCCCC(=O)N[C@H](CCCCNC(=N)N)C(=O)N[C@H](CC=C)C(=O)OC)ccc2ccccc12.Cl` gave an MIC of 8 µg/mL. As for `C=CCOc1ccc2ccccc2c1-c1c(OCC(=O)N[C@H](CCCCNC(=N)N)C(=O)N[C@H](CC=C)C(=O)OC)ccc2ccccc12.Cl`, the minimum inhibitory concentration (MIC) stood at 8 µg/mL. `COC(=O)[C@@H]1C/C=C/Cc2ccc3c(c2)c2cc(ccc2n3C(=O)OC(C)(C)C)[C@H](NC(C)=O)C(=O)N[C@H](CCCCN)C(=O)N1` gave an MIC of 15 µg/mL (≈ 23.7 µM).

`C=CCOc1ccc2ccccc2c1-c1c(OCCCC(=O)N[C@H](CCCCN)C(=O)N[C@H](CC=C)C(=O)OC)ccc2ccccc12.Cl` showed an MIC of 15 µg/mL. Compound `COC(=O)[C@H]1C/C=C/Cn2cc(c3ccccc32)CCCC(=O)N[C@H](CCCCN)C(=O)N1` gave an MIC of 125 µg/mL (≈ 275 µM).

As to `COC(=O)[C@@H]1C/C=C\COc2ccc3ccccc3c2-c2c(ccc3ccccc23)OCC(=O)N[C@H](CCCCNC(=N)N)C(=O)N1.Cl`, inhibition of growth (MIC) required 8 µg/mL.

These data come from ChEMBL document CHEMBL1136902, “Binaphthyl scaffolded peptoids via ring-closing metathesis reactions and their anti-bacterial activities” (2009).
